The values below come from patent publication US20060009637A1, “Molecules as produced by endothermic chemical reactions with anhydrous D-ribose” (priority 2004, published 2006).

One data set in a line: solubility in water. The settings on record: for solubility in water: result in words, monohydrate. The format is physicochemical.
Data set [1] in a line: toxicity of the monohydrate of D-ribose.
For a further data set, the system named is heart failure. Conditions: people with heart failure; cited from earlier work.

Consider `O.O=C[C@H](O)[C@H](O)[C@H](O)CO` [ribose monohydrate, D-ribose monohydrate], for which the solubility in water entry in the data set “solubility in water” (listed as H2O-ribose product) is given as “exceptionally high”; in the data set “solubility in water”, “very soluble in water”. Moreover, the toxicity result in data set [1] was “virtually no toxicity”.

Regarding `CN(CC(=O)O)C(=N)N` [creatine], in the data set with heart failure, the ejection fraction entry is “did not improve”; the skeletal muscle action entry was “increasing both strength and endurance”.

For `O=C[C@H](O)[C@H](O)[C@H](O)CO` [anhydrous D-ribose, D-ribose], in “solubility in water” (per kilogram of anhydrous D-ribose, gives clear translucent amber viscous solution if enough time is allowed), the “water needed to dissolve a kilogram of anhydrous D-ribose” value is reported as “less than 168 grams”.
